According to the kinase profiling compilation of Christmann-Franck et al. (2016):

Tests used:
Assay in all cases: radiometric filter-binding kinase assay
MKNK2 (human) = MKNK2 (human) (UniProt Q9HBH9)
MAPKAPK2 (human) = MAPKAPK2 (human) (UniProt P49137)
MKNK1 (human) = MKNK1 (human) (UniProt Q9BUB5)
YES1 (human) = YES1 (human) (UniProt P07947)
RIPK2 (human) = RIPK2 (human) (UniProt O43353)
CDK2 CCNA2 (human) = CDK2 CCNA2 (human) (UniProt P20248+P24941)
[1] = tested on: AKT2 (human), P31751 [S474D]
EEF2K (human) = EEF2K (human) (UniProt O00418)
IRAK4 (human) = IRAK4 (human) (UniProt Q9NWZ3)
[2] = tested on: SGK1 (human), O00141 [S422D]
Sequence of SGK1 (human), O00141 [S422D] (O00141 whole entry S422D, looked up): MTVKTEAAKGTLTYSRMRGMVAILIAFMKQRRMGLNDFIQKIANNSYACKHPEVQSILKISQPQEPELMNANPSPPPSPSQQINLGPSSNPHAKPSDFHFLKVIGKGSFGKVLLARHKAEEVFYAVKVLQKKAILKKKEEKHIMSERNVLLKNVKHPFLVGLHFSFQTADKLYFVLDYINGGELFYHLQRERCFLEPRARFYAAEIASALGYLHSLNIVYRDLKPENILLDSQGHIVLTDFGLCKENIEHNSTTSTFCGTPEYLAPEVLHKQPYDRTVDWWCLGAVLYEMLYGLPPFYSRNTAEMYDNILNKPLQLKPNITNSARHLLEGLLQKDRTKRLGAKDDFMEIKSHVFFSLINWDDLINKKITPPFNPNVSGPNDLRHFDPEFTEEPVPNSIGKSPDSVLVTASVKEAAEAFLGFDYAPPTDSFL

SYK (human) = SYK (human) (UniProt P43405)
PAK6 (human) = PAK6 (human) (UniProt Q9NQU5)
Sequence of PAK6 (human) (Q9NQU5 whole entry, looked up): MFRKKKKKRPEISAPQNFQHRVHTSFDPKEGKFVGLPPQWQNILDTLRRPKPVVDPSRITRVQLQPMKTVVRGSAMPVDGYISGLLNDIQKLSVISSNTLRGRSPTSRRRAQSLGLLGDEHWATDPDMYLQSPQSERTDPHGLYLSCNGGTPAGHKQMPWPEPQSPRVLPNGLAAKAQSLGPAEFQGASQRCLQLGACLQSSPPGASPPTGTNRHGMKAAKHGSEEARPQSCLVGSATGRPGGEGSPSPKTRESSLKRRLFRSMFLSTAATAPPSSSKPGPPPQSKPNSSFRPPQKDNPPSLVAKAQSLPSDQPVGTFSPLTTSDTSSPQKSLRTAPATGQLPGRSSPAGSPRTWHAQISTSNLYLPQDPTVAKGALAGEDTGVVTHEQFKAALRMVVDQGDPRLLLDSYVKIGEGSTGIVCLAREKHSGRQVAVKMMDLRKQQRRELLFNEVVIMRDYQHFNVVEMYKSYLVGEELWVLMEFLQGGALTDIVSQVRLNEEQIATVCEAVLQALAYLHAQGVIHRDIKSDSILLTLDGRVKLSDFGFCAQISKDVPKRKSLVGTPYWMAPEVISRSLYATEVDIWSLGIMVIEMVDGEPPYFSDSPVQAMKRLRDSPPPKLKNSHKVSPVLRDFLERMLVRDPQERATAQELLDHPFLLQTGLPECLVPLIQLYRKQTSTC

MYLK (human) = MYLK (human) (UniProt Q15746)
IGF1R (human) = IGF1R (human) (UniProt P08069)
CAMKK2 (human) = CAMKK2 (human) (UniProt Q96RR4)
HIPK2 (human) = HIPK2 (human) (UniProt Q9H2X6)
MELK (human) = MELK (human) (UniProt Q14680)
BRSK1 (human) = BRSK1 (human) (UniProt Q8TDC3)
PAK4 (human) = PAK4 (human) (UniProt O96013)
Sequence of PAK4 (human) (O96013 whole entry, looked up): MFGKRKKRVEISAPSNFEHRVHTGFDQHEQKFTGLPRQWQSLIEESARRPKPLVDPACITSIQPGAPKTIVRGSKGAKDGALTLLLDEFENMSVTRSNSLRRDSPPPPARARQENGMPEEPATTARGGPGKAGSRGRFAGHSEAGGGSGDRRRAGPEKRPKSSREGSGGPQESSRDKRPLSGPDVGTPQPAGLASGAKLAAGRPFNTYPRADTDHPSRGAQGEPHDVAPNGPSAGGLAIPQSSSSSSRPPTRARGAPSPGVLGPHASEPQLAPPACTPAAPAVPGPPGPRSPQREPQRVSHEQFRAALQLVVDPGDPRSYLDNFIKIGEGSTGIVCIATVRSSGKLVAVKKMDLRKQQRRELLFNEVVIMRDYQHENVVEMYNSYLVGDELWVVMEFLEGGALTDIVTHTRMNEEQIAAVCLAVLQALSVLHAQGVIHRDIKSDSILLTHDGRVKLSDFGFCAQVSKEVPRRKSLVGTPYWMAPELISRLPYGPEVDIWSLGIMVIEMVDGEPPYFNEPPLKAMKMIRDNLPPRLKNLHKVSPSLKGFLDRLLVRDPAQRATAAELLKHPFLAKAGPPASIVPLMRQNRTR

EPHB3 (human) = EPHB3 (human) (UniProt P54753)
Sequence of EPHB3 (human) (P54753 whole entry, looked up): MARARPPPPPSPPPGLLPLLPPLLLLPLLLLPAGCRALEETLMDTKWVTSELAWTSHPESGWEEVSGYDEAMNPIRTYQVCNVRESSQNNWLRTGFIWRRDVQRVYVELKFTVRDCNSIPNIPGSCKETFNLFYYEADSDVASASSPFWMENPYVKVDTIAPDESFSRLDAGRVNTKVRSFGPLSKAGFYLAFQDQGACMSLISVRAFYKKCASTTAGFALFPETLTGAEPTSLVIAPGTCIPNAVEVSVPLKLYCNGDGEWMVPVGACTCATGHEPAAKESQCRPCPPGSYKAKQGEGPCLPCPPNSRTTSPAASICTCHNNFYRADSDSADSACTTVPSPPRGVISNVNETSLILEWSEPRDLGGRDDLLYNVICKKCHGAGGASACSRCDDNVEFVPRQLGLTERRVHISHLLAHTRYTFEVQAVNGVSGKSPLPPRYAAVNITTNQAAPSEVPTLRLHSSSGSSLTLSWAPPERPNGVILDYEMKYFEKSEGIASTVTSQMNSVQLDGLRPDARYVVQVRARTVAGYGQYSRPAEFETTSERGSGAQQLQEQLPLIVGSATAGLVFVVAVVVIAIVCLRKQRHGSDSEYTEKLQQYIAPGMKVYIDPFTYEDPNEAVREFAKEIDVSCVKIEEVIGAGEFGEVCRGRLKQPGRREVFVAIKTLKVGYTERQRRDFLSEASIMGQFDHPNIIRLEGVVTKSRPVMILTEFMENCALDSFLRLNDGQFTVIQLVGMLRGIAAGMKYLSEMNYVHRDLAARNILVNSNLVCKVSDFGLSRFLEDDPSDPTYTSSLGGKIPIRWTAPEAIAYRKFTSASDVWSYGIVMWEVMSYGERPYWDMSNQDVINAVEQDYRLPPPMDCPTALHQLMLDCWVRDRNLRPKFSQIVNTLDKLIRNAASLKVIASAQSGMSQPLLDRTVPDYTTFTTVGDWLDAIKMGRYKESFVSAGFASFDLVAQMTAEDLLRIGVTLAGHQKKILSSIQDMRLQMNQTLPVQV

MAPK14 (human) = MAPK14 (human) (UniProt Q16539)
RPS6KA5 KD1 KD2 (human) = RPS6KA5 KD1 KD2 (human) (UniProt O75582)
MAPK15 (human) = MAPK15 (human) (UniProt Q8TD08)
MAP3K9 (human) = MAP3K9 (human) (UniProt P80192)
Sequence of MAP3K9 (human) (P80192 whole entry, looked up): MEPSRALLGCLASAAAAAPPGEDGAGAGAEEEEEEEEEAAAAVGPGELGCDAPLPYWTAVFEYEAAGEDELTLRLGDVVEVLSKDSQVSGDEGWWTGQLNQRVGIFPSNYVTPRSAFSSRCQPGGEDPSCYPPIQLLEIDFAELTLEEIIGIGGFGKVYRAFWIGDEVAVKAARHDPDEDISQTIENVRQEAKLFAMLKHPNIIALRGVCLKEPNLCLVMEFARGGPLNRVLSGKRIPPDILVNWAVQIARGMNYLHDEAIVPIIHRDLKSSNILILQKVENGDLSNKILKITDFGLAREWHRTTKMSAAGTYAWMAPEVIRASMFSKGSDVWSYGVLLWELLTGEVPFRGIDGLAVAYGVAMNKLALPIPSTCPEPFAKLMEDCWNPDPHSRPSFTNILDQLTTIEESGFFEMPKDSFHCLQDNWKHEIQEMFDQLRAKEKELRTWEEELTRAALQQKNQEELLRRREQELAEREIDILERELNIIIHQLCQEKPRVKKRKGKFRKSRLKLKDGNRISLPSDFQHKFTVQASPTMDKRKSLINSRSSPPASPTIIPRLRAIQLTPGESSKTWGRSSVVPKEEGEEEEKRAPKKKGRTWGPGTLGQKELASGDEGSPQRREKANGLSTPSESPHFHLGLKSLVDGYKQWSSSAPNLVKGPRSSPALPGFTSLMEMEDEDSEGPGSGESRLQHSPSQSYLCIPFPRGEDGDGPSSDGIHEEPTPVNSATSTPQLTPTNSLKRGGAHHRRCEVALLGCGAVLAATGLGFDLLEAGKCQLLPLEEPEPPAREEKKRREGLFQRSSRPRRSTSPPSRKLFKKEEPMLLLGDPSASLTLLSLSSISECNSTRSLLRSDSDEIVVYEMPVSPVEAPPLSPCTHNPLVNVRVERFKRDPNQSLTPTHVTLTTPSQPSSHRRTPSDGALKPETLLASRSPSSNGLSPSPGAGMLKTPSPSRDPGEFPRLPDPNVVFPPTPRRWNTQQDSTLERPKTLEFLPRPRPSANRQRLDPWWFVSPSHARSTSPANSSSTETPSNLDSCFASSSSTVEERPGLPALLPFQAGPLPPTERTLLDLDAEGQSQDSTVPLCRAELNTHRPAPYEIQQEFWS

EPHA2 (human) = EPHA2 (human) (UniProt P29317)
RPS6KA3 KD1 KD2 (human) = RPS6KA3 KD1 KD2 (human) (UniProt P51812)
DYRK2 (human) = DYRK2 (human) (UniProt Q92630)
BRSK2 (human) = BRSK2 (human) (UniProt Q8IWQ3)
CSK (human) = CSK (human) (UniProt P41240)

Sequence of MKNK2 (human) (Q9HBH9 whole entry, looked up): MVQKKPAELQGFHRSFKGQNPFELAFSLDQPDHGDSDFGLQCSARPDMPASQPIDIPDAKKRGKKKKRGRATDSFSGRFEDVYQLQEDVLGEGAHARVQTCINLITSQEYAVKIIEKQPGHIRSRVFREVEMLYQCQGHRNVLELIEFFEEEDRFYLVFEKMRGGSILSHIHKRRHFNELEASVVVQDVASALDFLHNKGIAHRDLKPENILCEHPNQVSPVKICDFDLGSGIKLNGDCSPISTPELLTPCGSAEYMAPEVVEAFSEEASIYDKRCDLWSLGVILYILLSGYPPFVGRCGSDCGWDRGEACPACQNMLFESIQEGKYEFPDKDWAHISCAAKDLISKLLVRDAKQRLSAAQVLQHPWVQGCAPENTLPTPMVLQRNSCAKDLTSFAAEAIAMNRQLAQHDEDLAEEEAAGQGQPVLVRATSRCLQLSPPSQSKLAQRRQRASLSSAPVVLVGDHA
Sequence of YES1 (human) (P07947 whole entry, looked up): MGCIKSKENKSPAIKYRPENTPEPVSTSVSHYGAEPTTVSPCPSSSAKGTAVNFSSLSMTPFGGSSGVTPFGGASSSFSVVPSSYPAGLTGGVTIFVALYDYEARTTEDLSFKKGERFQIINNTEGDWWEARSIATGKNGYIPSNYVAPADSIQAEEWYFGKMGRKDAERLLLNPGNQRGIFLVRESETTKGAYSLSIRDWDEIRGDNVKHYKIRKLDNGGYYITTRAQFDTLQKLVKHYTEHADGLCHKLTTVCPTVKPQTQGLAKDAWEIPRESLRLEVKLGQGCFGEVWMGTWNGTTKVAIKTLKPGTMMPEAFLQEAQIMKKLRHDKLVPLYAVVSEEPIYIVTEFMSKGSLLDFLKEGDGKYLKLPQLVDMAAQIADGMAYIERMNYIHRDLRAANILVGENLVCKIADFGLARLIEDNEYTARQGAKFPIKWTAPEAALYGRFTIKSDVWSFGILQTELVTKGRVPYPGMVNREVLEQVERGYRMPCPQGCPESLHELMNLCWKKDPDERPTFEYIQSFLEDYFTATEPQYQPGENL

CNc1nc(-c2ccc3c(N)n[nH]c3c2)cc(N2C[C@@H](C(=O)NC3CCCCC3)CC[C@H]2C)n1
residual activity (MKNK2 (human); compound 0.01 µM): 91%
residual activity (MKNK2 (human); compound 0.1 µM): 100%
residual activity (MKNK2 (human); compound 1.0 µM): 106%
residual activity (MAPKAPK2 (human); compound 0.01 µM): 104%
residual activity (MAPKAPK2 (human); compound 0.1 µM): 111%
residual activity (MAPKAPK2 (human); compound 1.0 µM): 101%
residual activity (MKNK1 (human); compound 0.01 µM): 106%
residual activity (MKNK1 (human); compound 0.1 µM): 108%
residual activity (MKNK1 (human); compound 1.0 µM): 111%
residual activity (YES1 (human); compound 0.01 µM): 122%
residual activity (YES1 (human); compound 0.1 µM): 119%
residual activity (YES1 (human); compound 1.0 µM): 101%
residual activity (RIPK2 (human); compound 0.01 µM): 110%
residual activity (RIPK2 (human); compound 0.1 µM): 114%
residual activity (RIPK2 (human); compound 1.0 µM): 107%
residual activity (CDK2 CCNA2 (human); compound 0.01 µM): 104%
residual activity (CDK2 CCNA2 (human); compound 0.1 µM): 101%
residual activity (CDK2 CCNA2 (human); compound 1.0 µM): 105%
residual activity ([1]; compound 0.01 µM): 125%
residual activity ([1]; compound 0.1 µM): 118%
residual activity ([1]; compound 1.0 µM): 100%
residual activity (EEF2K (human); compound 0.01 µM): 108%
residual activity (EEF2K (human); compound 0.1 µM): 100%
residual activity (EEF2K (human); compound 1.0 µM): 97%
residual activity (IRAK4 (human); compound 0.01 µM): 109%
residual activity (IRAK4 (human); compound 0.1 µM): 112%
residual activity (IRAK4 (human); compound 1.0 µM): 106%
residual activity ([2]; compound 0.01 µM): 96%
residual activity ([2]; compound 0.1 µM): 96%
residual activity ([2]; compound 1.0 µM): 37%
residual activity (SYK (human); compound 0.01 µM): 109%
residual activity (SYK (human); compound 0.1 µM): 105%
residual activity (SYK (human); compound 1.0 µM): 103%
residual activity (PAK6 (human); compound 0.01 µM): 108%
residual activity (PAK6 (human); compound 0.1 µM): 120%
residual activity (PAK6 (human); compound 1.0 µM): 124%
residual activity (MYLK (human); compound 0.01 µM): 116%
residual activity (MYLK (human); compound 0.1 µM): 113%
residual activity (MYLK (human); compound 1.0 µM): 92%
residual activity (IGF1R (human); compound 0.01 µM): 126%
residual activity (IGF1R (human); compound 0.1 µM): 115%
residual activity (IGF1R (human); compound 1.0 µM): 107%
residual activity (CAMKK2 (human); compound 0.01 µM): 112%
residual activity (CAMKK2 (human); compound 0.1 µM): 123%
residual activity (CAMKK2 (human); compound 1.0 µM): 127%
residual activity (HIPK2 (human); compound 0.01 µM): 119%
residual activity (HIPK2 (human); compound 0.1 µM): 124%
residual activity (HIPK2 (human); compound 1.0 µM): 113%
residual activity (MELK (human); compound 0.01 µM): 115%
residual activity (MELK (human); compound 0.1 µM): 77%
residual activity (MELK (human); compound 1.0 µM): 23%
residual activity (BRSK1 (human); compound 0.01 µM): 110%
residual activity (BRSK1 (human); compound 0.1 µM): 95%
residual activity (BRSK1 (human); compound 1.0 µM): 57%
residual activity (PAK4 (human); compound 0.01 µM): 108%
residual activity (PAK4 (human); compound 0.1 µM): 117%
residual activity (PAK4 (human); compound 1.0 µM): 106%
residual activity (EPHB3 (human); compound 0.01 µM): 106%
residual activity (EPHB3 (human); compound 0.1 µM): 107%
residual activity (EPHB3 (human); compound 1.0 µM): 91%
residual activity (MAPK14 (human); compound 0.01 µM): 105%
residual activity (MAPK14 (human); compound 0.1 µM): 109%
residual activity (MAPK14 (human); compound 1.0 µM): 103%
residual activity (RPS6KA5 KD1 KD2 (human); compound 0.01 µM): 102%
residual activity (RPS6KA5 KD1 KD2 (human); compound 0.1 µM): 100%
residual activity (RPS6KA5 KD1 KD2 (human); compound 1.0 µM): 94%
residual activity (MAPK15 (human); compound 0.01 µM): 106%
residual activity (MAPK15 (human); compound 0.1 µM): 117%
residual activity (MAPK15 (human); compound 1.0 µM): 107%
residual activity (MAP3K9 (human); compound 0.01 µM): 110%
residual activity (MAP3K9 (human); compound 0.1 µM): 111%
residual activity (MAP3K9 (human); compound 1.0 µM): 107%
residual activity (EPHA2 (human); compound 0.01 µM): 110%
residual activity (EPHA2 (human); compound 0.1 µM): 118%
residual activity (EPHA2 (human); compound 1.0 µM): 114%
residual activity (RPS6KA3 KD1 KD2 (human); compound 0.01 µM): 96%
residual activity (RPS6KA3 KD1 KD2 (human); compound 0.1 µM): 97%
residual activity (RPS6KA3 KD1 KD2 (human); compound 1.0 µM): 79%
residual activity (DYRK2 (human); compound 0.01 µM): 100%
residual activity (DYRK2 (human); compound 0.1 µM): 108%
residual activity (DYRK2 (human); compound 1.0 µM): 102%
residual activity (BRSK2 (human); compound 0.01 µM): 114%
residual activity (BRSK2 (human); compound 0.1 µM): 110%
residual activity (CSK (human); compound 0.01 µM): 103%
residual activity (CSK (human); compound 0.1 µM): 104%
residual activity (CSK (human); compound 1.0 µM): 100%
